Drawing on US12649751B2 (Arcus Biosciences, Inc., priority 2022, dated 2026), this text covers IC50 for 25 compounds.

One experiment deals with HPK1 (Homo sapiens, UniProt Q92918). The experiment in a line: HPK1 Biochemical Assay (ADP-Glo luminescence; low ATP 10 μM or high ATP 200 μM). Particulars: 2 nM HPK1, 10 μM ATP; read-out: Biochemical Potency (low ATP). A general note: In ADP-Glo the light output rises with the ADP produced.
For experiment [1], the system named is p-SLP-76 (Ser376) in Jurkat cells. The experiment is described as follows: pSLP76 Cellular Assay (AlphaLISA SureFire Ultra p-SLP-76 (Ser376), anti-CD3 activated Jurkat cells). Format: cell-based. Particulars: Homo sapiens; Jurkat cells, anti-CD3 stimulation, pSLP76; read-out: Cellular Potency. Here is the method: pSLP76 cellular assay was performed using Jurkat cells and the AlphaLISA SureFire Ultra p-SLP-76 (Ser376) Assay Kit (PerkinElmer). Dose-response assays were performed in Greiner® Low Volume 384-well assay plates containing 200 nL of 22 serial 2-fold compound dilutions using Bravo and Echo. Jurkat cells were grown in RPMI-1640 supplemented with 10% FBS and PSG. The day prior to the assay, the cells were collected, and serum starved overnight in Opti-MEM. The day of the assay, the cells were collected and resuspended in HBSS. 100,000 cells/well were added to the compound plates and after a short spin, the plates were incubated at 37° C. for 1 h. The cells were activated by adding 10 μL of 0.025 mg/ml anti-CD3. Plates were then incubated at 37° C. for 45 min. Stimulation was terminated by adding […], followed by a brief centrifugation and 60 min of shaking at 300 rpm. Cell lysates (10 μL) were transferred to 384-well White Opti-plates and the samples were processed according to the manufacturer's directions. The fluorescence signal from pSLP76 was measured at 570 nm using Envision plate reader. IC50 values were determined by fitting the data to a standard 4-parameter logistic equation. The results are summarized in the Cellular Potency columns in Tables 4 and 5 below (Cellular Potency).
(In Alpha technology, singlet oxygen from a donor bead excites a nearby acceptor bead.)

Sequence of HPK1 (Q92918 whole entry, species assumed): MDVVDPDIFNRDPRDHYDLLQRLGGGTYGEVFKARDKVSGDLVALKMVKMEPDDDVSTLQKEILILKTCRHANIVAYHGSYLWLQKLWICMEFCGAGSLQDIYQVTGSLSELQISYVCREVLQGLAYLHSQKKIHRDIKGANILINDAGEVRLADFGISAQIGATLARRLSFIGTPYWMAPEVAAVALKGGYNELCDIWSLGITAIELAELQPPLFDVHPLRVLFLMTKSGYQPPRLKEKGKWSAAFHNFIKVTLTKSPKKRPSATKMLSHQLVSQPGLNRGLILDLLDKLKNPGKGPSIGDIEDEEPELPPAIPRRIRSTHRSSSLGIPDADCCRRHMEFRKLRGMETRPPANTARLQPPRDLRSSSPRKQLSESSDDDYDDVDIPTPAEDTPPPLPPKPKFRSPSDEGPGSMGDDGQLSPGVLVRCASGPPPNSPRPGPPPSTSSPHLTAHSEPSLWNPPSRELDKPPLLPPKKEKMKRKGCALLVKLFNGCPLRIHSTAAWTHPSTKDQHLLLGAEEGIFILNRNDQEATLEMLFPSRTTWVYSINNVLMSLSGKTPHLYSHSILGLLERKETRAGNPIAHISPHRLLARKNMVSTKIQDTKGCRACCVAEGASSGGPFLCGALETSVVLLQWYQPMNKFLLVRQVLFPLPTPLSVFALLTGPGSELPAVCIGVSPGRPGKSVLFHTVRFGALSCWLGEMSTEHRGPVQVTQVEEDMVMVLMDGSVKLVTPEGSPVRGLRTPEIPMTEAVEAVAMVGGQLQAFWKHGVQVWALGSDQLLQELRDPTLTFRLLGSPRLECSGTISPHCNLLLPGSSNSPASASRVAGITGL

As to `Cc1c(-c2nc3cc(Nc4ccc(N5CCOCC5)c(CN(C)C)n4)ncc3s2)cnc2c1NCCO2` [Example 28, 6-[(Dimethylamino)methyl]-N-(2-{8-methyl-1H,2H,3H-pyrido[2,3-b][1,4]oxazin-7-yl}-[1,3]thiazolo[5,4-c]pyridin-6-yl)-5-(morpholin-4-yl)pyridin-2-amine], the IC50 was less than 100 nM on HPK1 and 100 to 1000 nM in experiment [1].
In the same order, the values of `Cc1c(N)cncc1-c1nc2cc(Nc3ccc(N4CCOCC4)c(CN(C)C)n3)ncc2s1` [Example 29, N-[2-(5-Amino-4-methylpyridin-3-yl)-[1,3]thiazolo[5,4-c]pyridin-6-yl]-6-[(dimethylamino)methyl]-5-(morpholin-4-yl)pyridin-2-amine] are less than 100 nM and 100 to 1000 nM.
In the same order, the values of `Cc1cccc(F)c1-c1nc2cc(Nc3ccc(N4CCOCC4)c(CN4CCCS4(=O)=O)n3)ncc2s1` [Example 30, 2-[(6-{[2-(2-Fluoro-6-methylphenyl)-[1,3]thiazolo[5,4-c]pyridin-6-yl]amino}-3-(morpholin-4-yl)pyridin-2-yl)methyl]-1λ^6,2-thiazolidine-1,1-dione] are less than 100 nM and 100 to 1000 nM.
In the same order, the values of `CN(Cc1nc(Nc2cc3nc(-c4c(F)cccc4F)sc3cn2)ccc1N1CCOCC1)S(C)(=O)=O` [Example 31, N-[(6-{[2-(2,6-Difluorophenyl)-[1,3]thiazolo[5,4-c]pyridin-6-yl]amino}-3-(morpholin-4-yl)pyridin-2-yl)methyl]-N-methylmethanesulfonamide] are 1000 to 5000 nM and greater than 5000 nM.
Consider `Cc1ccc(Nc2cc3nc(-c4cnn(CCC(N)=O)c4)sc3cn2)nc1CN1CCCC1` [Example 37, 3-{4-[6-({5-Methyl-6-[(pyrrolidin-1-yl)methyl]pyridin-2-yl}amino)-[1,3]thiazolo[5,4-c]pyridin-2-yl]-1H-pyrazol-1-yl}propanamide], for which the IC50 was less than 100 nM at HPK1 and 100 to 1000 nM in experiment [1].
On the same counts, the results for `Cc1ccc(Nc2cc3nc(-c4ncccc4C)sc3cn2)nc1CN1CCCC1` [Example 41, 5-Methyl-N-[2-(3-methylpyridin-2-yl)-[1,3]thiazolo[5,4-c]pyridin-6-yl]-6-[(pyrrolidin-1-yl)methyl]pyridin-2-amine] are less than 100 nM and 1000 to 5000 nM.
In the case of `Cc1ccc(Nc2cc3nc(-c4ncccc4C)sc3cn2)nc1CN1CC[C@H](F)C1` [Example 43, 6-{[(3S)-3-Fluoropyrrolidin-1-yl]methyl}-5-methyl-N-[2-(3-methylpyridin-2-yl)-[1,3]thiazolo[5,4-c]pyridin-6-yl]pyridin-2-amine], the IC50 at HPK1 was less than 100 nM; in experiment [1], greater than 5000 nM.
Consider `Cc1ccc(Nc2cc3nc(-c4ncccc4C)sc3cn2)nc1CN1CCC[C@H]1C` [Example 44, 5-Methyl-N-[2-(3-methylpyridin-2-yl)-[1,3]thiazolo[5,4-c]pyridin-6-yl]-6-{[(2R)-2-methylpyrrolidin-1-yl]methyl}pyridin-2-amine], for which the IC50 at HPK1 is less than 100 nM; in experiment [1] it was greater than 5000 nM.
On the same counts, the results for `Cc1ccc(Nc2cc3nc(-c4c(F)cccc4F)sc3cn2)nc1CN(C)C` [Example 46, N-[2-(2,6-Difluorophenyl)-[1,3]thiazolo[5,4-c]pyridin-6-yl]-6-[(dimethylamino)methyl]-5-methylpyridin-2-amine] are less than 100 nM and 1000 to 5000 nM.
Take `Cc1ccc(Nc2cc3nc(-c4ncccc4C)sc3cn2)nc1CN1CCC[C@@H]1CO` [Example 49, [(2R)-1-[(3-Methyl-6-{[2-(3-methylpyridin-2-yl)-[1,3]thiazolo[5,4-c]pyridin-6-yl]amino}pyridin-2-yl)methyl]pyrrolidin-2-yl]methanol]: the IC50 was less than 100 nM on HPK1 and 1000 to 5000 nM in experiment [1].
In the case of `Cc1ccc(Nc2cc3nc(-c4ncccc4C)sc3cn2)nc1CN1CC[C@@H](C#N)C1` [Example 54, 6 (3R)-1-[(3-Methyl-6-{[2-(3-methylpyridin-2-yl)-[1,3]thiazolo[5,4-c]pyridin-6-yl]amino}pyridin-2-yl)methyl]pyrrolidine-3-carbonitrile], the results for the IC50 (at HPK1; in experiment [1]) were less than 100 nM and greater than 5000 nM, respectively.
`Cc1ccc(Nc2cc3nc(-c4ccnnc4)sc3cn2)nc1CN1CCCC1` [Example 57, 5-Methyl-N-[2-(pyridazin-4-yl)-[1,3]thiazolo[5,4-c]pyridin-6-yl]-6-[(pyrrolidin-1-yl)methyl]pyridin-2-amine]: the IC50 at HPK1 was less than 100 nM; in experiment [1], 1000 to 5000 nM.
With `Cc1cccnc1-c1nc2cc(Nc3ccc(Cl)c(CN4CCCC4)n3)ncc2s1` [Example 60], the IC50 on HPK1 is less than 100 nM; in experiment [1] it was greater than 5000 nM.
Consider `Cc1cccnc1-c1nc2cc(Nc3ccc(N4CCOCC4)c(CN4CCCC4)n3)ncc2s1` [Example 63, N-[2-(3-Methylpyridin-2-yl)-[1,3]thiazolo[5,4-c]pyridin-6-yl]-5-(morpholin-4-yl)-6-[(pyrrolidin-1-yl)methyl]pyridin-2-amine], for which the values for the IC50 (at HPK1; in experiment [1]) were less than 100 nM and 100 to 1000 nM, respectively.
As to `Cc1cccnc1-c1nc2cc(Nc3ccc(C)c(N4C[C@@H](N)C[C@H]4CO)n3)ncc2s1` [Example 65, [(2S,4S)-4-Amino-1-(3-methyl-6-{[2-(3-methylpyridin-2-yl)-[1,3]thiazolo[5,4-c]pyridin-6-yl]amino}pyridin-2-yl)pyrrolidin-2-yl]methanol], the values for the IC50 (at HPK1; in experiment [1]) were less than 100 nM and 100 to 1000 nM, respectively.
On to `Cc1cccnc1-c1nc2cc(Nc3cccc(N4C[C@@H](N)C[C@H]4CO)n3)ncc2s1` [Example 66, [(2S,4S)-4-Amino-1-(6-{[2-(3-methylpyridin-2-yl)-[1,3]thiazolo[5,4-c]pyridin-6-yl]amino}pyridin-2-yl)pyrrolidin-2-yl]methanol], for which the IC50 was less than 100 nM at HPK1 and 1000 to 5000 nM in experiment [1].
On the same counts, the results for `Cc1cccnc1-c1nc2cc(Nc3ccc(C)c(N4C[C@H](N)C[C@H]4CO)n3)ncc2s1` [Example 69, [(2S,4R)-4-Amino-1-(3-methyl-6-{[2-(3-methylpyridin-2-yl)-[1,3]thiazolo[5,4-c]pyridin-6-yl]amino}pyridin-2-yl)pyrrolidin-2-yl]methanol] are less than 100 nM and greater than 5000 nM.
As for `Cc1cccnc1-c1nc2cc(Nc3cccc(N4C[C@H](N)C[C@H]4CO)n3)ncc2s1` [Example 70, [(2S,4R)-4-Amino-1-(6-{[2-(3-methylpyridin-2-yl)-[1,3]thiazolo[5,4-c]pyridin-6-yl]amino}pyridin-2-yl)pyrrolidin-2-yl]methanol], the IC50 on HPK1 is less than 100 nM; in experiment [1], 100 to 1000 nM.
Turning to `Cc1cccnc1-c1nc2cc(Nc3ccc(C)c(N4CCC[C@H](N)C4)n3)ncc2s1` [Example 71, 6-[(3S)-3-Aminopiperidin-1-yl]-5-methyl-N-[2-(3-methylpyridin-2-yl)-[1,3]thiazolo[5,4-c]pyridin-6-yl]pyridin-2-amine], the IC50 is less than 100 nM at HPK1 and 1000 to 5000 nM in experiment [1].
On the same counts, the results for `Cc1cccnc1-c1nc2cc(Nc3ccc(C)c(N4CC[C@@H](N)C4)n3)ncc2s1` [Example 74, 6-[(3R)-3-Aminopyrrolidin-1-yl]-5-methyl-N-[2-(3-methylpyridin-2-yl)-[1,3]thiazolo[5,4-c]pyridin-6-yl]pyridin-2-amine] are less than 100 nM and greater than 5000 nM.
On the same counts, the results for `Cc1cc(NCc2nccn2C)nc(Nc2cc3nc(-c4ccnc(C)c4)sc3cn2)c1` [Example 76, 4-Methyl-N2-[(1-methyl-1H-imidazol-2-yl)methyl]-N6-[2-(2-methylpyridin-4-yl)-[1,3]thiazolo[5,4-c]pyridin-6-yl]pyridine-2,6-diamine] are less than 100 nM and 1000 to 5000 nM.
In the same order, the values of `Cc1cccnc1-c1nc2cc(Nc3cccc(N4C[C@@H]5C[C@H]4CN5)n3)ncc2s1` [Example 78, 6-[(1S,4S)-2,5-Diazabicyclo[2.2.1]heptan-2-yl]-N-[2-(3-methylpyridin-2-yl)-[1,3]thiazolo[5,4-c]pyridin-6-yl]pyridin-2-amine] are less than 100 nM and 100 to 1000 nM.
Regarding `COc1cccc(F)c1-c1nc2cc(Nc3cccc(N4CC5CCC4CN5C)n3)ncc2s1` (centres unmarked) [Example 79, N-[2-(2-Fluoro-6-methoxyphenyl)-[1,3]thiazolo[5,4-c]pyridin-6-yl]-6-{5-methyl-2,5-diazabicyclo[2.2.2]octan-2-yl}pyridin-2-amine], the IC50 is less than 100 nM at HPK1 and 1000 to 5000 nM in experiment [1].
Consider `COc1cccc(F)c1-c1nc2cc(Nc3cccc(N4C[C@@H]5C[C@H]4CN5C)n3)ncc2s1` [Example 80, N-[2-(2-Fluoro-6-methoxyphenyl)-[1,3]thiazolo[5,4-c]pyridin-6-yl]-6-[(1S,4S)-5-methyl-2,5-diazabicyclo[2.2.1]heptan-2-yl]pyridin-2-amine], for which the IC50 is less than 100 nM on HPK1 and 100 to 1000 nM in experiment [1].
In the same order, the values of `COc1cccc(F)c1-c1nc2cc(Nc3cccc(N4CCN(C)CC4)n3)ncc2s1` [Example 81, N-[2-(2-Fluoro-6-methoxyphenyl)-[1,3]thiazolo[5,4-c]pyridin-6-yl]-6-(4-methylpiperazin-1-yl)pyridin-2-amine] are less than 100 nM and 100 to 1000 nM.
